{"source": "paper PMC4907692", "about": "“Engineering vanilloid-sensitivity into the rat TRPV2 channel” (eLife, 2016)", "biological_target": "T1, TRPV1 QM (S512F, M547L, T550L, E570Q) (Rattus norvegicus, UniProt O35433, E570Q/M547L/S512F/T550L)", "T1 construct": "expressed in transfected cells; host or cells: Xenopus oocytes (cRNA injection)", "T1 sequence (O35433 whole entry S512F/M547L/T550L/E570Q)": "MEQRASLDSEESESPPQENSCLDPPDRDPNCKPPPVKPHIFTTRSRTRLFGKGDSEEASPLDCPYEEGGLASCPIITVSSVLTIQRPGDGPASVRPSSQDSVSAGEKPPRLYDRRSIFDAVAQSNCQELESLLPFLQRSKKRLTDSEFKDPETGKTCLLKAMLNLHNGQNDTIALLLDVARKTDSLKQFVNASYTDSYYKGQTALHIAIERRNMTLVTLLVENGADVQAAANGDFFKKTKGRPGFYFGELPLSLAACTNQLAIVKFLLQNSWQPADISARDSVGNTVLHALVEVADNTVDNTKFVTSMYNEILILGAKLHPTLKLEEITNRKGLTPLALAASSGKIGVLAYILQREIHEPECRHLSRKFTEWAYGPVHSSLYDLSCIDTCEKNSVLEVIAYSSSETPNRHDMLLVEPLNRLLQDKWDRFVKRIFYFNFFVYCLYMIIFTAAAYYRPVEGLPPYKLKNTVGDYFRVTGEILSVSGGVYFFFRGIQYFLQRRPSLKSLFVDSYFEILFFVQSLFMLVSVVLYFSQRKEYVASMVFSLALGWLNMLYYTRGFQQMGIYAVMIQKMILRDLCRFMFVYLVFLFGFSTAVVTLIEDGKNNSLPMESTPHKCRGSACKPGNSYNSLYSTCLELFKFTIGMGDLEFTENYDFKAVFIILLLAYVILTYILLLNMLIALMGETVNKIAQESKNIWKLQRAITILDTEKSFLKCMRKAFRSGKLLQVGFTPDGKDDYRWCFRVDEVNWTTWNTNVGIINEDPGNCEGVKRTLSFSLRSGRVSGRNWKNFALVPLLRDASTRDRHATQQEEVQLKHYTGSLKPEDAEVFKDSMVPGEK", "assay": "Two-electrode voltage-clamp in Xenopus oocytes, TRPV1 QM", "format": "cell-based", "details": "100 nM RTx", "excerpt": "To further investigate the putative vanilloid binding pocket in TRPV1, we inspected the cryo-EM structure of TRPV1, looking for residues that are located nearby to the putative RTx density (Figure 1B; regions/residues highlighted in yellow) and that differ between TRPV1 and TRPV2 channels (Figure 3—figure supplement 1; regions highlighted in magenta). […] To quantify the contribution of each of these residues to TRPV1 channel activation by RTx under our experimental conditions, we mutated each to the corresponding residue in TRPV2. We then expressed each construct in oocytes and used the two electrode voltage-clamp technique to study activation by RTx and by the non-specific TRPV channel activator 2-APB. We recorded time courses for channel activation by each agonist while stepping the membrane potential from −60 to +60 mV every 3 s from a holding potential of 0 mV using an external recording solution containing 100 mM KCl (internal K^+ concentration in a healthy oocyte is 100 mM) (Figure 3A, left). We also recorded current-voltage (I-V) relations by stepping over a wider range of voltages in the absence and presence of activators, or in the presence of ruthenium red (RR), a non-specific inhibitor of TRP channels (Figure 3A, right). […]"}
{"molecule": "C=C(C)[C@]12C[C@@H](C)[C@@]34O[C@](Cc5ccccc5)(O[C@@H]1[C@@H]3C=C(COC(=O)Cc1ccc(O)c(OC)c1)C[C@]1(O)C(=O)C(C)=C[C@@H]41)O2", "note": "[RTx, resiniferatoxin]", "values": [{"measurement": "channel activation by RTx", "value": "completely lost sensitivity"}]}
